# Laboratory results as given in patent US7119182B1 (The Regents of the University of California, priority 1991, dated 2006).
# Square brackets hold non-standard residues; d marks the D form. Ends that are not written are not given here. Peptide text beside a SMILES is read from it. * marks the point of attachment. 2Nal = N[C@@H](Cc1ccc2ccccc2c1)C(=O)O; 2Thi = N[C@@H](Cc1cccs1)C(=O)O; Cha = N[C@@H](CC1CCCCC1)C(=O)O; Phg = N[C@H](C(=O)O)c1ccccc1; Aib = CC(C)(N)C(=O)O; Piv = CC(C)(C)C(=O)*; X1 = O=C(c1ccccc1S)*; Mpa = O=C(O)CCS
# What was measured:
# [1] = target: T1, thrombin receptor (Homo sapiens, UniProt P25116); assay: Platelet activation/aggregation assays in the presence of thrombin, antagonist peptides; assay type: cell-based; settings: read-out: IC50 (50% inhibition of activation or aggregation)
# T1 construct: In this assay, washed human platelets are prepared by the method of Baenzinger; endogenous in cells; host or cells: washed human platelets
# T1 sequence (P25116 22-425): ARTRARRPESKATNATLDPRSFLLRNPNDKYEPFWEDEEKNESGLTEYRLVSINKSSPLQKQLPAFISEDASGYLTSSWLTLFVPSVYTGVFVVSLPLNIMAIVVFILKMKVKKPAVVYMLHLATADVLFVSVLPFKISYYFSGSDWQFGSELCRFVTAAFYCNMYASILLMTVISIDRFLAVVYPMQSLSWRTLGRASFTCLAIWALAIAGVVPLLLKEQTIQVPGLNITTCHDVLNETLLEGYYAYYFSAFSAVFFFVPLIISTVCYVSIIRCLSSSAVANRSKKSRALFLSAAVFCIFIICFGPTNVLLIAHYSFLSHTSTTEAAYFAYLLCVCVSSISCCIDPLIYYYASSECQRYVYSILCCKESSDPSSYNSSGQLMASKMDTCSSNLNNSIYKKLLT
# Method: Platelet Aggregation: In this assay, washed human platelets are prepared by the method of Baenzinger, M. G., Meth Enzymol (1974) 31:149–155, or as described by Charo, I. F., et al., J Clin Invest (1977) 63:866–873.
# Washed platelets are suspended in modified Tyrode's buffer, pH 7.4 with 2 mM magnesium and 1 mM calcium at a concentration of 10^8 platelets/ml.
# About 20 μl Chromolume® reagent (Chronolog Corporation, Havertown, Pa.) is added. In addition to measuring aggregation, ATP secretion is assessed. […] Platelet ATP secretion is measured in a lumiaggregometer as luminescence signal. […] Preincubation is not necessary for testing agonists or antagonists which interact directly with the receptor.
# Platelet Aggregation Assay Using Microtiter Plates: Thrombin- or agonist-mediated platelet aggregation as measured with washed platelets in 96-well microtiter plates was performed as described (Fratantoni, J. C. et al., Am J Clin Pathol (1990) 94:613–617).
# [2] = target: T2, washed human platelets (Homo sapiens, UniProt P25116); settings: washed human platelets; for EC50: read-out: EC50 (concentration required to elicit a 50% maximal aggregation)
# T2 sequence (P25116 42-425): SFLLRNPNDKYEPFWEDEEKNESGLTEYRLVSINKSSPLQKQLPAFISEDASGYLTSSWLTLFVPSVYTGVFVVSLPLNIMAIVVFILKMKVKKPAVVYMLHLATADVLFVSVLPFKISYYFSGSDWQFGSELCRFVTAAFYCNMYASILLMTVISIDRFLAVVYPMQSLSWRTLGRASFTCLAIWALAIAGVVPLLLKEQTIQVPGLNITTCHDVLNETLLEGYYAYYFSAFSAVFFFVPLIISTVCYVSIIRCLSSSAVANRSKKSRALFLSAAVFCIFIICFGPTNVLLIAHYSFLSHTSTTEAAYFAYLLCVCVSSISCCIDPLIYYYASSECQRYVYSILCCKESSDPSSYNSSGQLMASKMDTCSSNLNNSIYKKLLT
# Method: Washed human platelets were prepared as described by Baenzinger, N. G., Meth Enz (1974) 31:149–155; and Charo, I. F., et al., J Clin Invest (1977) 63:866–873. Agonist-induced responses were assessed as described above.
# Using the platelet aggregation assay described above, the concentration of various peptides required to elicit a 50% maximal aggregation was determined.
Molecule,IC50 [1],EC50 (concentration required to elicit a 50% maximal aggregation) [2],further results
N=C(N)NCCC[C@H](NC(=O)[C@H](CC1CCCCC1)NC(=O)[C@H](CC1CCCCC1)NC(=O)[C@H](Cc1ccccc1)NC(=O)CCS)C(=O)N[C@@H](CC(N)=O)C(=O)N1CCC[C@H]1C(=O)N[C@@H](CC(N)=O)C(=O)N[C@@H](CC(=O)O)C(=O)N[C@@H](CCCCN)C(=O)N[C@@H](Cc1ccc(O)cc1)C(=O)N[C@@H](CCC(=O)O)C(N)=O ([Mpa]F[Cha][Cha]RNPNDKYE-NH2),80 µM,–,–
SFDLR [SFDLR-NH2],–,Inactive,–
CC(C)C[C@H](NC(=O)[C@H](CC(C)C)NC(=O)[C@H](Cc1cccs1)NC(=O)[C@@H](N)CO)C(=O)N[C@@H](CCCNC(=N)N)C(N)=O [S(Thi)LLR-NH2] (H-S[2Thi]LLR-NH2),–,–,EC50 [2]: 7.6 µM
FLLRNPNDKYEPF,–,Inactive,–
CC(C)C[C@H](NC(=O)[C@H](Cc1ccccc1)NC(=O)[C@@H](N)CO)C(=O)N[C@@H](Cc1ccc2ccccc2c1)C(=O)N[C@@H](CCCNC(=N)N)C(=O)N[C@@H](CC(N)=O)C(N)=O [SFL(Nal)RN-NH2] (H-SFL[2Nal]RN-NH2),–,–,EC50 [2]: 7.5 µM
CC(C)C[C@H](NC(=O)[C@H](CC(C)C)NC(=O)[C@H](Cc1ccccc1)NC(=O)[C@@H](N)CO)C(N)=O [SFLL-NH2] (H-SFLL-NH2),–,–,EC50 [2]: 146 µM
DFLLR [DFLLR-NH2],–,Inactive,–
N=C(N)NCCC[C@H](NC(=O)[C@H](CC1CCCCC1)NC(=O)[C@H](CC1CCCCC1)NC(=O)[C@H](Cc1ccccc1)NC(=O)CCS)C(=O)N[C@@H](Cc1ccccc1)C(=O)N1CCC[C@H]1C(=O)N[C@@H](CC(N)=O)C(=O)N[C@@H](CC(=O)O)C(=O)N[C@@H](CCCCN)C(N)=O [Mpr-F(Cha) (Cha)RFPNDK-NH2] ([Mpa]F[Cha][Cha]RFPNDK-NH2),> 100 µM,–,–
SF(Aib)LRN-NH2 (SF[Aib]LRN-NH2; N-terminus assumed; SMILES CC(C)C[C@H](NC(=O)C(C)(C)NC(=O)[C@H](Cc1ccccc1)NC(=O)[C@@H](N)CO)C(=O)N[C@@H](CCCNC(=N)N)C(=O)N[C@@H](CC(N)=O)C(N)=O),–,Inactive,–
SFLARNPNDKYE,–,Inactive,–
S(Phg)LLR-NH2 (S[Phg]LLR-NH2; N-terminus assumed; SMILES CC(C)C[C@H](NC(=O)[C@H](CC(C)C)NC(=O)[C@@H](NC(=O)[C@@H](N)CO)c1ccccc1)C(=O)N[C@@H](CCCNC(=N)N)C(N)=O),–,Inactive,–
C[C@H](NC(=O)[C@H](CCCNC(=N)N)NC(=O)[C@H](CC1CCCCC1)NC(=O)[C@H](CC1CCCCC1)NC(=O)[C@H](Cc1ccccc1)NC(=O)CCS)C(=O)N1CCC[C@H]1C(=O)N[C@@H](CC(N)=O)C(=O)N[C@@H](CC(=O)O)C(=O)N[C@@H](CCCCN)C(N)=O [Mpr-F(Cha) (Cha)RAPNDK-NH2] ([Mpa]F[Cha][Cha]RAPNDK-NH2),40 µM,–,–
C[C@H](NC(=O)[C@H](CC(=O)O)NC(=O)[C@H](CC(N)=O)NC(=O)[C@@H]1CCCN1C(=O)[C@H](CC(N)=O)NC(=O)[C@H](CCCNC(=N)N)NC(=O)[C@H](CC1CCCCC1)NC(=O)[C@H](CC1CCCCC1)NC(=O)[C@H](Cc1ccccc1)NC(=O)CCS)C(N)=O [Mpr-F(Cha) (Cha)RNPNDA-NH2] ([Mpa]F[Cha][Cha]RNPNDA-NH2),50 µM,–,–
SF(D-Ala)LR-NH2 (SF[dA]LR-NH2; N-terminus assumed; SMILES CC(C)C[C@H](NC(=O)[C@@H](C)NC(=O)[C@H](Cc1ccccc1)NC(=O)[C@@H](N)CO)C(=O)N[C@@H](CCCNC(=N)N)C(N)=O),–,Inactive,–
C[C@H](NC(=O)[C@H](CC(=O)O)NC(=O)[C@H](CC(N)=O)NC(=O)[C@@H]1CCCN1C(=O)[C@H](CCCCN)NC(=O)[C@H](CCCNC(=N)N)NC(=O)[C@H](CC1CCCCC1)NC(=O)[C@H](CC1CCCCC1)NC(=O)[C@H](Cc1ccccc1)NC(=O)CCS)C(N)=O [Mpr-F(Cha) (Cha)RKPNDA-NH2] ([Mpa]F[Cha][Cha]RKPNDA-NH2),50 µM,–,–
C[C@H](NC(=O)[C@H](CC(N)=O)NC(=O)[C@@H]1CCCN1C(=O)[C@H](CC(N)=O)NC(=O)[C@H](CCCNC(=N)N)NC(=O)[C@H](CC1CCCCC1)NC(=O)[C@H](CC1CCCCC1)NC(=O)[C@H](Cc1ccccc1)NC(=O)CCS)C(=O)N[C@@H](CCCCN)C(N)=O [Mpr-F(Cha) (Cha)RNPNAK-NH2] ([Mpa]F[Cha][Cha]RNPNAK-NH2),> 100 µM,–,–
CC(C)C[C@H](NC(=O)[C@H](CC(C)C)NC(=O)[C@H](Cc1ccccc1)NC(=O)C(C)(C)C)C(=O)N[C@@H](CCCNC(=N)N)C(N)=O [Pivaloyl-FLLR-NH2] (Piv-FLLR-NH2),1000 µM,–,–
SFLLDN [SFLLDN-NH2],–,Inactive,–
C[C@H](NC(=O)[C@H](CC(N)=O)NC(=O)[C@H](CCCNC(=N)N)NC(=O)[C@H](CC1CCCCC1)NC(=O)[C@H](CC1CCCCC1)NC(=O)[C@H](Cc1ccccc1)NC(=O)CCS)C(=O)N[C@@H](CC(N)=O)C(=O)N[C@@H](CC(=O)O)C(=O)N[C@@H](CCCCN)C(N)=O [Mpr-F(Cha) (Cha)RNANDK-NH2] ([Mpa]F[Cha][Cha]RNANDK-NH2),75 µM,–,–

Molecule,IC50 [1],EC50 (concentration required to elicit a 50% maximal aggregation) [2],further results
CC(C)C[C@H](NC(=O)[C@H](Cc1ccccc1)NC(=O)CCS)C(=O)N[C@@H](CC(C)C)C(=O)N[C@@H](CCCNC(=N)N)C(=O)N[C@@H](CC(N)=O)C(=O)N1CCC[C@H]1C(=O)N[C@@H](CC(N)=O)C(=O)N[C@@H](CC(=O)O)C(=O)N[C@@H](CCCCN)C(=O)O ([Mpa]FLLRNPNDK-OH),80 µM,–,–
SALLRNPNDKYE,–,Inactive,–
N=C(N)NCCC[C@H](NC(=O)[C@H](CC1CCCCC1)NC(=O)[C@H](CC1CCCCC1)NC(=O)[C@H](Cc1ccccc1)NC(=O)c1ccccc1S)C(=O)N[C@@H](CCCCN)C(=O)N1CCC[C@H]1C(=O)N[C@@H](CC(N)=O)C(=O)N[C@@H](CC(=O)O)C(=O)N[C@@H](CCCCN)C(N)=O [(2-Mba)-F(Cha)(Cha)RKPNDK-NH2] (X1-F[Cha][Cha]RKPNDK-NH2),50 µM,–,–
CSCCC(=O)N[C@@H](Cc1ccccc1)C(=O)N[C@@H](CC1CCCCC1)C(=O)N[C@@H](CC1CCCCC1)C(=O)N[C@@H](CCCNC(=N)N)C(=O)N[C@@H](CCCCN)C(=O)N1CCC[C@H]1C(=O)N[C@@H](CC(N)=O)C(=O)N[C@@H](CC(=O)O)C(=O)N[C@@H](CCCCN)C(N)=O [(SMeMpr)-F(Cha)(Cha)RKPNDK-NH2] ([Mpa](Me)F[Cha][Cha]RKPNDK-NH2),10 µM,–,–
SFFLRN-NH2 [SFFLRN-NH2],–,–,EC50 [2]: 1.5 µM
SF(b-Ala)LRN-NH2 (SFXLRN; beta-Ala at position 3; C-terminal amide),–,Inactive,–
N=C(N)NCCC[C@H](NC(=O)[C@H](CC1CCCCC1)NC(=O)[C@H](CC1CCCCC1)NC(=O)[C@H](Cc1ccccc1)NC(=O)CCS)C(=O)N[C@@H](CC(N)=O)C(=O)N1CCC[C@H]1C(=O)N[C@@H](CC(N)=O)C(=O)N[C@@H](CC(=O)O)C(=O)N[C@@H](CCCCN)C(=O)N[C@@H](Cc1ccc(O)cc1)C(=O)O [Mpr-F(Cha) (Cha)RNPNDKY] ([Mpa]F[Cha][Cha]RNPNDKY-OH),40 µM,–,–
CC(C)C[C@H](NC(=O)[C@H](CC(C)C)NC(=O)[C@H](Cc1ccccc1)NC(=O)[C@@H](N)CO)C(=O)N[C@@H](CCCN=C(N)N)C(N)=O [SFLLR-NH2],–,–,EC50 [2]: 7.5 µM
CC(C)C[C@H](NC(=O)[C@H](CC(C)C)N(C)C(=O)[C@H](Cc1ccccc1)NC(=O)[C@@H](N)CO)C(=O)N[C@@H](CCCN=C(N)N)C(N)=O [SF(N-MeLeu)LR-NH2],–,–,EC50 [2]: > 1000 µM
FFLLR [FFLLR-NH2],–,Inactive,–
CC(C)C[C@H](NC(=O)[C@H](CC1CCCCC1)NC(=O)[C@H](Cc1ccccc1)NC(=O)[C@@H](N)CO)C(=O)N[C@@H](CCCNC(=N)N)C(N)=O [SF(Cha)LR-NH2] (H-SF[Cha]LR-NH2),–,–,EC50 [2]: 1.5 µM
SFLAR-NH2 [SFLAR-NH2],–,–,EC50 [2]: 146 µM
SFLLRNPN,–,–,EC50 [2]: 7.6 µM
SFLPR [SFLPR-NH2],–,Inactive,–
SLLLR [SLLLR-NH2],–,Inactive,–
SFLLRNPNDYKE,–,Inactive,–
KFLLR [KFLLR-NH2],–,Inactive,–
SFLER [SFLER-NH2],–,Inactive,–
